Consider 24 molecules from patent US10323027B2, “2,3-dihydro-4H-1,3-benzoxazin-4-one derivatives as modulators of cholinergic muscarinic M1 receptor” (Takeda Pharmaceutical Company Limited, priority 2015, dated 2019).

This test addresses T1, human M1 receptor (hCHRM1) (Homo sapiens, UniProt P11229).
T1 construct: expressed in transfected cells
T1 sequence (P11229 1-460): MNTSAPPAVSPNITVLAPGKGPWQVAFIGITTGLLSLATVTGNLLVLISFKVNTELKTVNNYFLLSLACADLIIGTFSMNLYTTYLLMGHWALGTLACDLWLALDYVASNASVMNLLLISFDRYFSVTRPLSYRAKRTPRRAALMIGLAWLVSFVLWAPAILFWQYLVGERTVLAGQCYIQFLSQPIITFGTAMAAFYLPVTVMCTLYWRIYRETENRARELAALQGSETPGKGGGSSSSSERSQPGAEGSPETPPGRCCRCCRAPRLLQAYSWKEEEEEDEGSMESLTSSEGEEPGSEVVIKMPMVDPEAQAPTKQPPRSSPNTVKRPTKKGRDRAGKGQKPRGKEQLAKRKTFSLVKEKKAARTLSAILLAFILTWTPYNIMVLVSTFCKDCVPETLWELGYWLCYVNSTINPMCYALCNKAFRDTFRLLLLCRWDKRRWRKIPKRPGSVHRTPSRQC
Nature of the test: Measurement of M1 receptor positive allosteric modulator (M1PAM) activity, Ca2+ fluorescence by FLIPRtetra (Experimental Example 1). The class given is cell-based. As to conditions: for activity (%) at 10 μM: 10 μM test compound, 100% = acetylcholine 1 μM, 0% = DMSO; for EC50: inflection point of concentration-dependent curve, in presence of acetylcholine at EC20 (0.8-1.0 nM), CHO-K1 cells expressing hCHRM1, read-out: IP value. The method in brief:
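CHO-K1 cells stably expressing hCHRM1, loaded with Fluo-4 AM (probenecid), received compound with acetylcholine at EC20 (final 0.8-1.0 nM); Ca2+ fluorescence read 1 min by FLIPRtetra. Activity scaled 0% (DMSO) to 100% (1 μM acetylcholine); IP from inflection point of concentration curve.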

Structures are written as SMILES. Counter-ions that a name gives are not always drawn.

For `Cc1c(Cc2ccc(-n3ccnc3)nc2)cc2c(c1Cl)OCN([C@H]1CCC[C@@H]1O)C2=O` (relative stereo) [Example 39, 8-chloro-3-(trans-2-hydroxycyclopentyl)-6-((6-(1H-imidazol-1-yl)pyridin-3-yl)methyl)-7-methyl-2,3-dihydro-4H-1,3-benzoxazin-4-one], the “activity (%) at 10 μM” value is 88% and the EC50 came to 1.5 nM.

For `O=C1c2cc(Cc3ccc(Cl)nc3)c3ccccc3c2OCN1CC1CCCO1` (centres unmarked) [Example 76, 6-((6-chloropyridin-3-yl)methyl)-3-(tetrahydrofuran-2-ylmethyl)-2,3-dihydro-4H-naphtho[2,1-e][1,3]oxazin-4-one], the “activity (%) at 10 μM” value came out at 93% and the EC50 was found to be 63 nM.

As for `Cc1ccc(Cc2cc3c(c(C)c2C)OCN([C@H]2CCC[C@@H]2O)C3=O)cn1` [Example 26, 3-((1S,2S)-2-hydroxycyclopentyl)-7,8-dimethyl-6-((6-methylpyridin-3-yl)methyl)-2,3-dihydro-4H-1,3-benzoxazin-4-one monohydrochloride], the EC50 came out at 5.4 nM. Moreover, the “activity (%) at 10 μM” value (monohydrochloride) amounted to 119%.

As to `Cc1c(Cc2ccc(Cl)nc2)cc2c(c1Cl)OCN(CC1CCCO1)C2=O` (centres unmarked) [Example 87, 8-chloro-6-((6-chloropyridin-3-yl)methyl)-7-methyl-3-(tetrahydrofuran-2-ylmethyl)-2,3-dihydro-4H-1,3-benzoxazin-4-one], the “activity (%) at 10 μM” value was 93% and the EC50 was found to be 160 nM.

As to `COc1c(Cc2ccc(-n3ccnc3)nc2)cc2c(c1F)OCN([C@H]1CCC[C@@H]1O)C2=O` (relative stereo) [Example 48, 8-fluoro-3-(trans-2-hydroxycyclopentyl)-6-((6-(1H-imidazol-1-yl)pyridin-3-yl)methyl)-7-methoxy-2,3-dihydro-4H-1,3-benzoxazin-4-one], the “activity (%) at 10 μM” value worked out at 106% and the EC50 was determined as 7.4 nM.

As to `O=C1c2cc(Cc3ccc(Cl)nc3)c3ccccc3c2OCN1[C@H]1COCC[C@@H]1O` [Example 125, 1,5-anhydro-2-(6-((6-chloropyridin-3-yl)methyl)-4-oxo-2H-naphtho[2,1-e][1,3]oxazin-3(4H)-yl)-2,4-dideoxy-L-threo-pentitol], the “activity (%) at 10 μM” value worked out at 89% and the EC50 worked out at 3.8 nM.

Turning to `Cc1cc2c(cc1CN1CCC(F)(F)CC1)C(=O)N([C@H]1CCCC[C@@H]1O)CO2` (relative stereo) [Example 85, 6-((4,4-difluoropiperidin-1-yl)methyl)-3-(trans-2-hydroxycyclohexyl)-7-methyl-2,3-dihydro-4H-1,3-benzoxazin-4-one], the “activity (%) at 10 μM” value stood at 104% and the EC50 is 110 nM.

Regarding `O=C1c2cc(Cc3ccc(Cl)nc3)c3ccccc3c2OCN1[C@H]1COCC[C@@H]1O` [Example 4, 1,5-anhydro-2-(6-((6-chloropyridin-3-yl)methyl)-4-oxo-2H-naphtho[2,1-e][1,3]oxazin-3(4H)-yl)-2,4-dideoxy-L-threo-pentitol], the “activity (%) at 10 μM” value was 109% and the EC50 is 3.2 nM.

As to `Cc1cc(Cc2ccc(-n3cccn3)cc2)cc2c1OCN([C@H]1CCCC[C@@H]1O)C2=O` (relative stereo) [Example 65, 3-(trans-2-hydroxycyclohexyl)-8-methyl-6-(4-(1H-pyrazol-1-yl)benzyl)-2,3-dihydro-4H-1,3-benzoxazin-4-one], the “activity (%) at 10 μM” value worked out at 99% and the EC50 was determined as 35 nM.

Regarding `O=C1c2cc(Cc3ccc(Cl)nc3)c3ccccc3c2OCN1[C@H]1CCC[C@@H]1O` [Example 43, 6-((6-chloropyridin-3-yl)methyl)-3-((1S,2S)-2-hydroxycyclopentyl)-2,3-dihydro-4H-naphtho[2,1-e][1,3]oxazin-4-one], the “activity (%) at 10 μM” value worked out at 93% and the EC50 was 2.4 nM.

Take `Cc1cc2c(cc1Cc1ccc(-c3cn(C)nn3)cc1)C(=O)N(CC1CCCO1)CO2` (centres unmarked) [Example 61, 7-methyl-6-(4-(1-methyl-1H-1,2,3-triazol-4-yl)benzyl)-3-(tetrahydrofuran-2-ylmethyl)-2,3-dihydro-4H-1,3-benzoxazin-4-one]: the “activity (%) at 10 μM” value is recorded as 92% and the EC50 came to 23 nM.

As for `Cc1c(Cc2ccc(-c3ccn(C)n3)cc2)cc2c(c1F)OCN([C@H]1CCC[C@@H]1O)C2=O` [Example 9, 8-fluoro-3-((1S,2S)-2-hydroxycyclopentyl)-7-methyl-6-(4-(1-methyl-1H-pyrazol-3-yl)benzyl)-2,3-dihydro-4H-1,3-benzoxazin-4-one], the “activity (%) at 10 μM” value is listed as 98% and the EC50 is 4.6 nM.

Turning to `Cc1c(Cc2ccc(Cl)nc2)cc2c(c1C)OCN([C@H]1COCC[C@@H]1O)C2=O` [Example 10, 1,5-anhydro-2-(6-((6-chloropyridin-3-yl)methyl)-7,8-dimethyl-4-oxo-2H-1,3-benzoxazin-3(4H)-yl)-2,4-dideoxy-L-threo-pentitol], the “activity (%) at 10 μM” value is 109% and the EC50 came to 9.1 nM.

As for `O=C1c2cc(CN3CCC(F)(F)C3)c3ccccc3c2OCN1[C@H]1CCC[C@@H]1O` [Example 69, 6-((3,3-difluoropyrrolidin-1-yl)methyl)-3-((1S,2S)-2-hydroxycyclopentyl)-2,3-dihydro-4H-naphtho[2,1-e][1,3]oxazin-4-one], the “activity (%) at 10 μM” value is recorded as 93% and the EC50 was 51 nM.

For the molecule `COc1ccc(Cc2cc3c(c(F)c2C)OCN([C@H]2CCC[C@@H]2O)C3=O)cn1` [Example 18, 8-fluoro-3-((1S,2S)-2-hydroxycyclopentyl)-6-((6-methoxypyridin-3-yl)methyl)-7-methyl-2,3-dihydro-4H-1,3-benzoxazin-4-one], the “activity (%) at 10 μM” value was 107% and the EC50 was 37 nM.

With `Cc1ccc(Cc2cc3c(c(Cl)c2C)OCN([C@H]2CCCC[C@@H]2O)C3=O)cn1` [Example 2, 8-chloro-3-((1S,2S)-2-hydroxycyclohexyl)-7-methyl-6-((6-methylpyridin-3-yl)methyl)-2,3-dihydro-4H-1,3-benzoxazin-4-one], the “activity (%) at 10 μM” value is 106% and the EC50 came out at 2.5 nM.

Consider `Cc1cc2c(cc1Cc1ccc(Cl)nc1)C(=O)N([C@H]1CCCC[C@@H]1O)CO2` (relative stereo) [Example 62, 6-((6-chloropyridin-3-yl)methyl)-3-(trans-2-hydroxycyclohexyl)-7-methyl-2,3-dihydro-4H-1,3-benzoxazin-4-one], for which the “activity (%) at 10 μM” value came out at 91%.

In the case of `Cc1ccc(Cc2cc3c(c(F)c2C)OCN([C@H]2CCCC[C@@H]2O)C3=O)cn1` [Example 27, 8-fluoro-3-((1S,2S)-2-hydroxycyclohexyl)-7-methyl-6-((6-methylpyridin-3-yl)methyl)-2,3-dihydro-4H-1,3-benzoxazin-4-one], the “activity (%) at 10 μM” value is given as 105% and the EC50 amounted to 6 nM.

In the case of `COc1ccc(Cc2cc3c(c(C)c2C)OCN([C@H]2COCC[C@@H]2O)C3=O)cc1` (relative stereo) [Example 59, 1,5-anhydro-2,4-dideoxy-2-(6-(4-methoxybenzyl)-7,8-dimethyl-4-oxo-2H-1,3-benzoxazin-3(4H)-yl)-threo-pentitol], the “activity (%) at 10 μM” value was found to be 99% and the EC50 was 21 nM.

As to `COc1c(Cc2ccc(-n3cccn3)nc2)cc2c(c1F)OCN([C@H]1CCC[C@@H]1O)C2=O` (relative stereo) [Example 15, 8-fluoro-3-(trans-2-hydroxycyclopentyl)-7-methoxy-6-((6-(1H-pyrazol-1-yl)pyridin-3-yl)methyl)-2,3-dihydro-4H-1,3-benzoxazin-4-one], the “activity (%) at 10 μM” value is 92% and the EC50 was determined as 19 nM.

Take `Cn1cc(-c2ccc(Cc3ccc4c(c3)C(=O)N([C@H]3CCCC[C@@H]3O)CO4)cc2)cn1` (relative stereo) [Example 66, 3-(trans-2-hydroxycyclohexyl)-6-(4-(1-methyl-1H-pyrazol-4-yl)benzyl)-2,3-dihydro-4H-1,3-benzoxazin-4-one]: the “activity (%) at 10 μM” value stood at 93% and the EC50 stood at 44 nM.

Take `COc1c(Cc2ccc(-c3cnn(C)c3)nc2)cc2c(c1F)OCN(CC1CCCO1)C2=O` (centres unmarked) [Example 74, 8-fluoro-7-methoxy-6-((6-(1-methyl-1H-pyrazol-4-yl)pyridin-3-yl)methyl)-3-(tetrahydrofuran-2-ylmethyl)-2,3-dihydro-4H-1,3-benzoxazin-4-one]: the “activity (%) at 10 μM” value turned out to be 104% and the EC50 came out at 59 nM.

In the case of `O=C1c2cc(CN3CCC(F)CC3)c3ccccc3c2OCN1[C@H]1CCC[C@@H]1O` [Example 79, 6-((4-fluoropiperidin-1-yl)methyl)-3-((1S,2S)-2-hydroxycyclopentyl)-2,3-dihydro-4H-naphtho[2,1-e][1,3]oxazin-4-one], the “activity (%) at 10 μM” value is 97% and the EC50 amounted to 78 nM.

In the case of `Cc1ccc(Cc2cc3c(c(Cl)c2C)OCN(CC2CCCO2)C3=O)cn1` (centres unmarked) [Example 84, 8-chloro-7-methyl-6-((6-methylpyridin-3-yl)methyl)-3-(tetrahydrofuran-2-ylmethyl)-2,3-dihydro-4H-1,3-benzoxazin-4-one], the “activity (%) at 10 μM” value was found to be 93% and the EC50 is 96 nM.
